Assay results reported in US10689366B2, “Compounds for MALT1 degredation” (Cornell University, priority 2016, dated 2020).
Read-outs that look alike come from different tables or passages of the source.

Target: T1, MALT1 (Homo sapiens, UniProt Q9UDY8)
T1 sequence (Q9UDY8 1-824): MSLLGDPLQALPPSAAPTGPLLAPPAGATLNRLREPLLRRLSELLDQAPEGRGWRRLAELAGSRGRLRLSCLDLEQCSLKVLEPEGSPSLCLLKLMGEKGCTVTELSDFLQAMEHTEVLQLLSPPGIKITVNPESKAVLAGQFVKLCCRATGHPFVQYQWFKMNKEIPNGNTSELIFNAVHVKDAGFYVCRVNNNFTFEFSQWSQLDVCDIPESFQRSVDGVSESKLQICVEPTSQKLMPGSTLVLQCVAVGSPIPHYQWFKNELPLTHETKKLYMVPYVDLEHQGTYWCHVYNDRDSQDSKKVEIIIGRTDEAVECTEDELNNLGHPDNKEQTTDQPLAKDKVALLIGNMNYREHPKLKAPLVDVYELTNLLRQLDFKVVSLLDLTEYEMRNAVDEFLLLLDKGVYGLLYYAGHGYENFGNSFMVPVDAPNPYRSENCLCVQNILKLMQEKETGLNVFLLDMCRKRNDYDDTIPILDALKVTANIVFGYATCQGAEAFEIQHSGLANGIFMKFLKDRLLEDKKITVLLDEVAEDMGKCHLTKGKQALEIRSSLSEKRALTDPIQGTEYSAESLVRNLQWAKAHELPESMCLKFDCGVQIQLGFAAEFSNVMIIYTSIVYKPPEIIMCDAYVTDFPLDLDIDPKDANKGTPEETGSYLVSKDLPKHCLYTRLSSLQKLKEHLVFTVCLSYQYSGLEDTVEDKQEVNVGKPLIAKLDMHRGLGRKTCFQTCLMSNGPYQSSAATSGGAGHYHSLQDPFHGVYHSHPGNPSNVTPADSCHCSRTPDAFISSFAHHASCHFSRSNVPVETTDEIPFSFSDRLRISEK
Assay: MALT1 degradation assay (Western blot) in OCI-Ly3 cells
Assay type: cell-based
Set-up: endogenous in cells; host or cells: OCI-Ly3
Conditions: 48 hours, normalized to Actin, relative to vehicle treated cells
Method: In the experiments, OCI-Ly3 cells were grown for 6 hours in the presence of the indicated concentrations of Examples 1-6, 9, and 10. Proteins were extracted, analyzed by Western blot, and membranes were immunoblotted for MALT1, CRBN, and Actin. Table 3 provides the results of experimental data obtained from the example compounds of the present disclosure. In particular, OCI-Ly3 cells were grown for 48 hours in the presence of the indicated concentrations of Examples 1-19. Proteins were extracted, analyzed by Western blot, and membranes were immunoblotted for MALT1, CRBN, and Actin. Western blot bands were quantified using Image Lab software. Results were normalized to Actin expression and presented as % MALT1 degradation relative to vehicle treated cells.

[1] = read-out: % MALT1 Degradation at 1 μM

| % MALT1 degradation at 1 µM [1] | % MALT1 degradation at 1 µM | Compound |
| --- | --- | --- |
| 31 to 50% | – | CO[C@@H](C)c1c(NC(=O)Nc2cc(Cl)cnc2OCCNC(=O)CCOCCNc2cccc3c2CN(C2CCC(=O)NC2=O)C3=O)cnc2cc(Cl)nn12 (stereo partly drawn) [Example 12, N-(2-((5-Chloro-3-(3-(2-chloro-7-((S)-1-methoxyethyl)pyrazolo[1,5-a]pyrimidin-6-yl)ureido)pyridin-2-yl)oxy)ethyl)-3-(2-((2-(2,6-dioxopiperidin-3-yl)-1-oxoisoindolin-4-yl)amino)ethoxy)piopanamide] |
| – | no degradation | CO[C@@H](C)c1c(NC(=O)Nc2cnc(-n3cc(CNC(=O)CCOCCOCCOCCOCCC(=O)N[C@H](C(=O)N4C[C@H](O)CC4C(=O)NCc4ccc(-c5scnc5C)cc4)C(C)(C)C)cn3)c(Cl)c2)cnc2cc(Cl)nn12 (stereo partly shown) [Example 10] |
| – | no degradation | CO[C@@H](C)c1c(NC(=O)Nc2cc(Cl)cnc2OCCNC(=O)CCCCCCCCOc2cccc3c2C(=O)N(C2CCC(=O)NC2=O)C3=O)cnc2cc(Cl)nn12 (stereo partly drawn) [Example 16, N-(2-((5-Chloro-3-(3-(2-chloro-7-((S)-1-methoxyethyl)pyrazolo[1,5-a]pyrimidin-6-yl)ureido)pyridin-2-yl)oxy)ethyl)-9-((2-(2,6-dioxopiperidin-3-yl)-1,3-dioxoisoindolin-4-yl)oxy)nonanamide] |

Continued, compound first:

| Compound | % MALT1 degradation at 1 µM [1] | % MALT1 degradation at 1 µM |
| --- | --- | --- |
| CC(C)c1c(NC(=O)Nc2cnc(-n3cc(CNC(=O)CCOCCOCCNc4cccc5c4CN(C4CCC(=O)NC4=O)C5=O)cn3)c(Cl)c2)cnc2cc(Cl)nn12 (stereo not shown) [Example 7, N-((1-(3-Chloro-5-(3-(2-chloro-7-isopropylpyrazolo[1,5-a]pyrimidin-6-yl)ureido)pyridin-2-yl)-1H-pyrazol-4-yl)methyl)-3-(2-(2-((2-(2,6-dioxopiperidin-3-yl)-1-oxoisoindolin-4-yl)amino)ethoxy)ethoxy)propanamide] | 31 to 50% | – |
| Cc1c(NC(=O)Nc2cnc(-n3cc(CNC(=O)CCOCCOCCNc4cccc5c4CN(C4CCC(=O)NC4=O)C5=O)cn3)c(Cl)c2)cnc2ccc(Br)cc12 (stereo not shown) [Example 8, N-((1-(5-(3-(6-Bromo-4-methylquinolin-3-yl)ureido)-3-chloropyridin-2-yl)-1H-pyrazol-4-yl)methyl)-3-(2-(2-((2-(2,6-dioxopiperidin-3-yl)-1-oxoisoindolin-4-yl)amino)ethoxy)ethoxy)propanamide] | 31 to 50% | – |
| CO[C@@H](C)c1c(NC(=O)Nc2cnc(-n3cc(CNC(=O)CCOCCOCCNc4cccc5c4CN(C4CCC(=O)NC4=O)C5=O)cn3)c(Cl)c2)cnc2cc(Cl)nn12 (stereo partly drawn) [Example 5, N-((1-(3-Chloro-5-(3-(2-chloro-7-((S)-1-methoxyethyl)pyrazolo[1,5-a]pyrimidin-6-yl)ureido)pyridin-2-yl)-1H-pyrazol-4-yl)methyl)-3-(2-(2-((2-(2,6-dioxopiperidin-3-yl)-1-oxoisoindolin-4-yl)amino)ethoxy)ethoxy)propanamide] | 10 to 30% | – |
| CO[C@@H](C)c1c(NC(=O)Nc2cnc(-n3cc(CNC(=O)CCOCCOCCOCCN4CCN(Cc5ccc(COc6cccc7c6CN([C@H]6CCC(=O)NC6=O)C7=O)cc5)CC4)cn3)c(Cl)c2)cnc2cc(Cl)nn12 [Example 18, N-((1-(3-Chloro-5-(3-(2-chloro-7-((S)-1-methoxyethyl)pyrazolo[1,5-a]pyrimidin-6-yl)ureido)pyridin-2-yl)-1H-pyrazol-4-yl)methyl)-3-(2-(2-(2-(4-(4-(((2-((5)-2,6-dioxopiperidin-3-yl)-1-oxoisoindolin-4-yl)oxy)methyl)benzyl)piperazin-1-yl)ethoxy)ethoxy)ethoxy)propanamide] | – | >50% |
